Measured values taken from article PMC7450057, “Enhancing intracellular accumulation and target engagement of PROTACs with reversible covalent chemistry” (Nature Communications, 2020).
Where “and” joins values, the source holds several entries; their conditions need not be identical. Equal entries are not always repeated. Where two headings read alike, the source gives them in different places.

Tests used:
BTK = BTK (Homo sapiens, UniProt Q06187); assay: In vitro BTK kinase assay (PhosphoSens); type: biochemical; design: purchased SignalChem B10-10H-10
BTK, sequence (Q06187 whole entry): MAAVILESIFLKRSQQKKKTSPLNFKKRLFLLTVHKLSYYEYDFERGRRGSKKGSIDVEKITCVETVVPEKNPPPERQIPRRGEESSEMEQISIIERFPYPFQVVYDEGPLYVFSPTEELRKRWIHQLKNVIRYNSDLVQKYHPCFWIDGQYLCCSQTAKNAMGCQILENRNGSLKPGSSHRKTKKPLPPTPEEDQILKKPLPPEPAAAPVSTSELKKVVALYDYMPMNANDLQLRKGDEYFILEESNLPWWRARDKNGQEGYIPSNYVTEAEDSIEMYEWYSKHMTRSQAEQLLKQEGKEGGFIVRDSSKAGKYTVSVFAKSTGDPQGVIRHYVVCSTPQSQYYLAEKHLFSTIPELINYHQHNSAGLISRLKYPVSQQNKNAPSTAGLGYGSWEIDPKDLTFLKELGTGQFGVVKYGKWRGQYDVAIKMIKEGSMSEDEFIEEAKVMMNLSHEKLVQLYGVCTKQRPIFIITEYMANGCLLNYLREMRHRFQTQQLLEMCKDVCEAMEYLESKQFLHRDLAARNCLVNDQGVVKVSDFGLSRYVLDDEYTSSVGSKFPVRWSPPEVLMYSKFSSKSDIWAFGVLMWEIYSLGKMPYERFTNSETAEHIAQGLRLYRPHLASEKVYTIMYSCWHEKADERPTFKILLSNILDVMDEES
Description: BTK kinase activity inhibition IC50 was measured by PhosphoSens® Kinase Assay Kit (Assay Quant Technologies Inc., Cat.# CSKS-AQT0101K). […] Active recombinant BTK was purchased from SignalChem (Cat.# B10-10H-10). All the drugs (3 warhead control and 4 PROTACs) were dissolved in DMSO (10 mM). […] To calculate the IC50, subtract the background fluorescence determined with the “no kinase” control for each time point from the total signal to obtain corrected Relative Fluorescence Units (RFU) values. Plot the corrected RFU vs. Time for each inhibitor concentration and determine the initial reaction rates (slope of the linear portion) for each progress curve for each inhibitor concentration. Then plot velocity (RFU corrected/minute) vs [inhibitor] and determine the IC50 using a 4-parameter logistic fit.

BTK-NanoLuc fusion = target: T1, BTK-NanoLuc fusion (Homo sapiens, UniProt Q06187); assay: NanoBRET BTK in-cell target engagement assay; type: cell-based
T1 construct: host or cells: HEK 293T/17
T1 sequence (Q06187 whole entry, the tested form may be a part): as the sequence (Q06187 whole entry) above
Procedure, shortened: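 Tracer-displacement IC50 derived from background-corrected BRET ratio (450 nm donor, 610 nm acceptor) in live HEK293/T17 cells transfected with BTK-NanoLuc. Cells were exposed for 2 h at 37 °C to 1.0 µM tracer plus 5-fold serial dilutions of compound from 10 µM.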

full-length BTK protein = target: T2, full-length BTK protein (Homo sapiens, UniProt Q06187); assay: BTK binding assay (Kd, Eurofins DiscoverX)
T2 construct: Kd was measured using the full-length BTK protein by Eurofins DiscoverX; T7 phage fusion or DNA tag for qPCR (generic vendor protocol); purchased Eurofins DiscoverX
T2 sequence (Q06187 whole entry, the tested form may be a part): as the sequence (Q06187 whole entry) above
Description: The dissociation equilibrium constant Kd was measured using the full-length BTK protein by Eurofins DiscoverX according to the following protocol: kinase-tagged T7 phage strains were prepared in an E. coli host derived from the BL21 strain. E. coli were grown to log-phase and infected with T7 phage and incubated with shaking at 32 °C until lysis. The lysates were centrifuged and filtered to remove cell debris. The remaining kinases were produced in HEK-293 cells and subsequently tagged with DNA for qPCR detection. […] The liganded beads were blocked with excess biotin and washed with blocking buffer (SeaBlock (Pierce), 1% BSA, 0.05% Tween 20, 1 mM DTT) to remove unbound ligand and to reduce non-specific binding. […] Test compounds were prepared as 111X stocks in 100% DMSO. […] The compounds were then diluted directly into the assays such that the final concentration of DMSO was 0.9%. All reactions performed in polypropylene 384-well plate. Each was a final volume of 0.02 mL. […] The kinase concentration in the eluates was measured by qPCR. For kinase-binding constant determination, an 11-point 3-fold serial dilution of each test compound was prepared in 100% DMSO at 100x final test concentration and subsequently diluted to 1x in the assay (final DMSO concentration = 1%). […] Binding constants (Kd values) were calculated with a standard dose-response curve using the Hill equation: Response=Background+Signal−Background/1+KdHillSlope/Dose^HillSlope
The Hill Slope was set to −1. Curves were fitted using a non-linear least square fit with the Levenberg-Marquardt algorithm.

Rec-1 = assay: IC50 in MCL cell lines (Supplementary Table 2), Rec-1; conditions: for Cell Viability (%): Rec-1 cells, replicate wells

## CN(CCCNC(=O)CNc1cccc2c1C(=O)N(C1CCC(=O)NC1=O)C2=O)C(C)(C)C=C(C#N)C(=O)N1CCC[C@@H](n2nc(-c3ccc(Oc4ccccc4)cc3)c3c(N)ncnc32)C1 (stereo partly shown) [RC-1]
BTK; AssayQuant BTK assay kit, 2.5 nM BTK, 1 mM ATP, duplicates, read-out: BTK inhibition IC50
  IC50: 0.0018 µM
BTK; Supplementary Figure 5, drug concentration 2.56 pM, replicates, read-out: Inhibition(%)
  activity at 2.56 pM: 87.3%
BTK; Supplementary Figure 5, drug concentration 12.8 pM, replicates, read-out: Inhibition(%)
  activity at 12.8 pM: 93.2%
BTK; Supplementary Figure 5, drug concentration 64 pM, replicates, read-out: Inhibition(%)
  activity at 64 pM: 89.4%
BTK; Supplementary Figure 5, drug concentration 320 pM, replicates, read-out: Inhibition(%)
  activity at 0.00032 µM: 87.3%
BTK; Supplementary Figure 5, drug concentration 1600 pM, replicates, read-out: Inhibition(%)
  activity at 0.0016 µM: 55%
BTK; Supplementary Figure 5, drug concentration 8000 pM, replicates, read-out: Inhibition(%)
  activity at 0.008 µM: 8.41%
BTK; Supplementary Figure 5, drug concentration 40000 pM, replicates, read-out: Inhibition(%)
  activity at 0.04 µM: 3.46%
BTK; Supplementary Figure 5, drug concentration 200000 pM, replicates, read-out: Inhibition(%)
  activity at 0.2 µM: 2.91%
BTK; Supplementary Figure 5, drug concentration 1000000 pM, replicates, read-out: Inhibition(%)
  activity at 1 µM: 2.99%
BTK-NanoLuc fusion; Figure 3c, 1.00E-05 M, triplicates
  NanoBRET(%): 5.754% and 14.0151% and 10.6773%
BTK-NanoLuc fusion; Figure 3c, 1.60E-08 M, triplicates
  NanoBRET(%): 84.9586% and 87.9015% and 82.5703%
BTK-NanoLuc fusion; Figure 3c, 2.00E-06 M, triplicates
  NanoBRET(%): 6.342% and 5.596% and 5.448%
BTK-NanoLuc fusion; Figure 3c, 3.20E-09 M, triplicates
  NanoBRET(%): 98.0219% and 99.3574% and 101.289%
BTK-NanoLuc fusion; Figure 3c, 4.00E-07 M, triplicates
  NanoBRET(%): 9.4506% and 5.015% and 9.59%
BTK-NanoLuc fusion; Figure 3c, 8.00E-08 M, triplicates
  NanoBRET(%): 24.5688% and 19.6512% and 23.4022%
BTK-NanoLuc fusion; Figure 3d, 1.00E-05 M, triplicates
  NanoBRET(%): 9.378% and 8.307% and 3.455%
BTK-NanoLuc fusion; Figure 3d, 1.60E-08 M, triplicates
  NanoBRET(%): 87.0885% and 73.1635% and 80.126%
BTK-NanoLuc fusion; Figure 3d, 2.00E-06 M, triplicates
  NanoBRET(%): 4.9185% and 3.718% and 8.9958%
BTK-NanoLuc fusion; Figure 3d, 3.20E-09 M, triplicates
  NanoBRET(%): 95.2579% and 79.7394% and 93.8869%
BTK-NanoLuc fusion; Figure 3d, 4.00E-07 M, triplicates
  NanoBRET(%): 11.2221% and 10.3003% and 9.486%
BTK-NanoLuc fusion; Figure 3d, 8.00E-08 M, triplicates
  NanoBRET(%): 50.6504% and 43.13% and 35.3416%
BTK-NanoLuc fusion; HEK-293 cells, BTK tracer 1.0 µM, Table 1 / Fig. 3c, triplicates, read-out: BTK TE IC50,TE
  IC50: 0.043 µM
BTK-NanoLuc fusion; HEK-293 cells, BTK tracer 1.0 µM, experiment of Fig. 3f, read-out: BTK target engagement IC50
  IC50: 0.033 µM
BTK-NanoLuc fusion; Kd (BTK)/IC50,TE (BTK)
  K′P,D (relative intracellular accumulation coefficient): 1.5 × 10^−1
BTK-NanoLuc fusion; at 40 nM
  BTK target engagement: 50%
BTK-NanoLuc fusion; at 200 nM
  BTK target engagement: 90%
BTK-NanoLuc fusion; experiment of Fig. 3d, read-out: BTK target engagement IC50
  IC50: 0.059 µM
full-length BTK protein; BTK_+DTT, compound concentration 0.00491 nM
  Signal: 2.20E-05 and 2.17E-05
full-length BTK protein; BTK_+DTT, compound concentration 0.0147 nM
  Signal: 1.92E-05 and 1.81E-05
full-length BTK protein; BTK_+DTT, compound concentration 0.0442 nM
  Signal: 2.14E-05 and 1.73E-05
full-length BTK protein; BTK_+DTT, compound concentration 0.133 nM
  Signal: 2.05E-05 and 2.18E-05
full-length BTK protein; BTK_+DTT, compound concentration 0.398 nM
  Signal: 2.41E-05 and 2.16E-05
full-length BTK protein; BTK_+DTT, compound concentration 1.19 nM
  Signal: 1.65E-05 and 1.58E-05
full-length BTK protein; BTK_+DTT, compound concentration 3.58 nM
  Signal: 1.59E-05 and 1.74E-05
full-length BTK protein; BTK_+DTT, compound concentration 10.7 nM
  Signal: 1.27E-05 and 1.43E-05
full-length BTK protein; BTK_+DTT, compound concentration 32.2 nM
  Signal: 8.15E-06 and 9.04E-06
full-length BTK protein; BTK_+DTT, compound concentration 96.7 nM
  Signal: 2.36E-06 and 3.19E-06
full-length BTK protein; BTK_+DTT, compound concentration 290 nM
  Signal: 6.97E-07 and 7.79E-07
full-length BTK protein; BTK_-DTT, compound concentration 0.0152 nM
  Signal: 1.51E-05 and 1.47E-05
full-length BTK protein; BTK_-DTT, compound concentration 0.0457 nM
  Signal: 1.49E-05 and 1.51E-05
full-length BTK protein; BTK_-DTT, compound concentration 0.137 nM
  Signal: 1.65E-05 and 2.03E-05
full-length BTK protein; BTK_-DTT, compound concentration 0.412 nM
  Signal: 1.54E-05 and 1.43E-05
full-length BTK protein; BTK_-DTT, compound concentration 1.23 nM
  Signal: 1.12E-05 and 1.17E-05
full-length BTK protein; BTK_-DTT, compound concentration 3.7 nM
  Signal: 1.02E-05 and 1.17E-05
full-length BTK protein; BTK_-DTT, compound concentration 11.1 nM
  Signal: 6.96E-06 and 6.70E-06
full-length BTK protein; BTK_-DTT, compound concentration 33.3 nM
  Signal: 2.36E-06 and 3.11E-06
full-length BTK protein; BTK_-DTT, compound concentration 100 nM
  Signal: 5.28E-07 and 7.20E-07
full-length BTK protein; BTK_-DTT, compound concentration 300 nM
  Signal: 2.64E-07 and 1.61E-07
full-length BTK protein; full-length BTK, absence of DTT in the buffer, duplicates
  Kd: 0.0064 µM
Rec-1; Rec-1, triplicates
  IC50: 4.1 µM
Rec-1; 1.25E-06 M
  Cell Viability (%): 86.4761% and 87.1335% and 88.5619%
Rec-1; 1.56E-07 M
  Cell Viability (%): 110.78% and 108.392% and 108.404%
Rec-1; 2.50E-06 M
  Cell Viability (%): 70.381% and 67.6766% and 67.9066%
Rec-1; 3.13E-07 M
  Cell Viability (%): 100.052% and 101.66% and 95.2827%
Rec-1; 5.00E-06 M
  Cell Viability (%): 39.6222% and 42.2011% and 40.0645%
Rec-1; 6.25E-07 M
  Cell Viability (%): 96.6812% and 94.3055% and 92.2914%
Rec-1; 7.81E-08 M
  Cell Viability (%): 102.045% and 105.031% and 106.253%
